How the values were obtained:
synaptosomes = test: Western blot of synaptosomes from treated cells; format: cell-based, human; settings: RA 10 μM, Bryostatin-1 0.27 nM, 72 hr
Protocol: Synaptosomes from undifferentiated and differentiated cells were prepared following the method described earlier (29). See Nagy et al. (1984) J Neurochem 43, 1114-1123. Briefly, the cells were washes in 1×PBS and homogenized in 10 volumes of buffer (“buffer1”) containing 0.32 M sucrose, 5 mM HEPES pH 7.2, and 0.1 mM EDTA in a Teflon homogenizer. The homogenate was centrifuged at 1000×g for 10 min to remove the nuclear fraction. The supernatant obtained was again spun at 12000×g for 20 min at 4° C. The pellet thus obtained was resuspended in 3 volumes of buffer1 and was layered on to the 16%/10%/8.5% Percoll gradient prepared from the stock isoosmotic percoll containing 9 parts 100% percoll, and 1 part 2.5 M sucrose. The preparation was centrifuged at 15000×g for 20 min at 4° C. Synaptosomes collected from the layer between 10% and 16% gradient was washed with 1×PBS and was centrifuged at 20000×g for 15 min. The purified synaptosomes were homogenized in homogenizing buffer and were subjected to western blot as described before.
Western blot analysis was performed after 72 hr.

[1] = Water maze spatial learning and memory task, visible platform test; format: in vivo, Wistar rats
Protocol: Water maze spatial learning and memory task (2 training trials/day for 4 days) was used to evaluate effects of oral DCPLA-ME on learning and memory in rats. A visible platform test was conducted after the end of the experiments to evaluate whether the treatment might result in an altered sensorimotor activity and escape motivation.
Male adult Wistar rats (200-250 g) were housed in a temperature-controlled (20-24° C.) room for a week, allowed free access to food and water, and kept on a 12-h light/dark cycle. Rats were anesthetized with sodium pentobarbital (60 mg/kg i.p) and placed in a stereotactic apparatus (Kopf Instruments, Tujunga, Calif.). The core temperature of rats was monitored and kept constant (38.0±0.5° C.) with warming light and pad. Two stainless steel guide cannulas were placed with the tips positioned at the coordinates (anterior-posterior, 0.5 mm; lateral, 1.5 mm; horizontal, 3.2 mm), under aseptic conditions. At the end of surgery and under appropriate anesthesia, rats received (s.c.) banamine (1 mg/kg) and ketoprofen (5 mg/kg) in lactate/Ringer's solution. A 7-day recovery period was allowed before any further experimentation.
On the first day of experiments, all rats were randomly assigned to different groups and swam for 2 min in a 1.5-(diameter)×0.6-m (depth) pool (22±1° C.). On the following day, rats were trained in a two-trial per day task for four consecutive days. Each training trial lasted for up to 2 min, during which rats learned to escape from water by finding a hidden platform that was placed at a fixed location and submerged 1 cm below the water surface. The navigation of the rats was tracked by a video camera. The escape latency and the route of rats' swimming across the pool to the platform were recorded. The quadrant test (1 min) was performed after removing the platform, 24 hr after the last training trial.
DCPLA-ME was administered at either 5.3 or 16.0 mg/kg (intragastric, 8 doses total of 2/week with the first 6 doses before the water maze task and the seventh and eighth doses 0.5 hr after the second trial of the first and third training day).

PKC-ε = PKC-ε level in primary neurons (immunofluorescence, Western Blot); format: cell-based, rat; settings: ASPD-treated primary neurons, 100 nM DCPLA-ME
Protocol: Cells were harvested in homogenizing buffer containing 10 mM Tris-Cl (pH 7.4), 1 mM PMSF (phenylmethylsulfonyl fluoride), 1 mM EGTA, 1 mM EDTA, 50 mM NaF, and 20 μM leupeptin and were lysed by sonication. The homogenate was centrifuged at 100,000×g for 15 min at 4° C. to obtain the cytosolic fraction (supernatant) and membrane (pellet). The pellet was resuspended in the homogenizing buffer by sonication. Protein concentration was measured using the Coomassie Plus (Bradford) Protein Assay kit (Pierce, USA). Following quantification, 20 μg of protein from each sample was subjected to SDS-PAGE analysis in 4-20% gradient Tris-Glycine gel (Invitrogen, USA). The separated protein was then transferred to nitrocellulose membrane. The membrane was blocked with BSA at room temperature for 15 min and was incubated with primary antibody over night at 4° C. After the incubation, it was washed three times with TBS-T (Tris Buffered saline-Tween 20) and further incubated with alkaline phosphatase conjugated secondary antibody (Jackson Immunoresearch Laboratories, USA) at 1:10,000 dilution for 45 min. The membrane was finally washed three times with TBS-T and developed using the 1-step NBT-BCIP substrate (Pierce, USA). Western Blot was imaged in the ImageQuant RT-ECL (GE Life Sciences, Piscataway, N.J.) and densitometric quantification was performed using the IMAL software (Blanchette Rockefeller Neurosciences Institute, Morgantown, W. Va.). For translocation assays, PKC activation was represented as the percentage of total protein in the membrane (membrane/cytosol+membrane).
Cells were grown in two chambered slides (Nunc, USA) at low density. For immunofluorescence staining, the cells were washed with PBS (pH 7.4) and fixed with 4% paraformaldehyde for 4 min. Following fixation, the cells were blocked and permeabilized with 5% serum and 0.3% Triton X 100 in 1×PBS for 30 min. […] Six individual fields at 63× oil lens magnification were analyzed for the mean fluorescence intensity (MFI) in each channel. […]

## CCC/C=C/C=C/C(=O)O[C@H]1/C(=C/C(=O)OC)C[C@H]2C[C@H]([C@@H](C)O)OC(=O)C[C@H](O)C[C@@H]3C[C@H](OC(C)=O)C(C)(C)C(O)(C[C@@H]4C/C(=C/C(=O)OC)C[C@H](/C=C/C(C)(C)[C@]1(O)O2)O4)O3 [Bryostatin-1]
synaptosomes
  increase in PKC-ε level in synaptosomes: 2 fold

## CCCCCC1CC1CC1CC1CCCCCCCC(=O)OC (stereo not drawn) [DCPLA-ME, methyl 8-(2-((2-pentylcyclopropyl)methyl)cyclopropyl)octanoate]
[1]; 5.3 mg/kg intragastric
  memory retention, target quadrant ratio vs control: but not between the 5.3 mg/kg dose and control groups
  water maze learning, escape latency vs control: did not reach a significant level
[1]; 16.0 mg/kg intragastric
  water maze learning, escape latency vs control: improved learning performance
[1]; oral
  visible platform test, sensorimotor ability and escape motivation: did not affect rats' sensorimotor ability and motivation for an escape
PKC-ε
  PKC-ε protein level (Western Blot, in words): restored the PKC-ε protein level to normal

Reference: patent US10821079B2, “PKC activators and combinations thereof” (Cognitive Research Enterprises, Inc., priority 2011, dated 2020)
